From patent publication US11034681B2, “Crystal form of indole derivative and preparation method and use thereof” (CHIA TAI TIANQING PHARMACEUTICAL GROUP CO., LTD., priority 2018, dated 2021)
pIC50: −log10 of the molar value.

Assays:
CRTH2 receptor [1] = molecular target: T1, CRTH2 receptor (Homo sapiens, UniProt Q9Y5Y4); settings: background statement; cited from earlier work
T1 sequence (Q9Y5Y4 1-395): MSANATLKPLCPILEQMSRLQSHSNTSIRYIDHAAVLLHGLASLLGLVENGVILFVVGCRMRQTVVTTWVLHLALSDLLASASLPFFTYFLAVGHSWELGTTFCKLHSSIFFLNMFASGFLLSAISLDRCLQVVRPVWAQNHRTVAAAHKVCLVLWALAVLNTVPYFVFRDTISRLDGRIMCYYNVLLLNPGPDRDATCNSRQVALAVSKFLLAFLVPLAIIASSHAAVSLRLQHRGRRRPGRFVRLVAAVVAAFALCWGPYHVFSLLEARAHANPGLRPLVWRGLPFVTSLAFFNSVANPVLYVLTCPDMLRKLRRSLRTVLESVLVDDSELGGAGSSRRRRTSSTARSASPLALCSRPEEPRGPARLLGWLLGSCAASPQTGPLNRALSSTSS

[2] = Plasma pharmacokinetic assay in mice; type: in vivo; settings: mouse, female C57 BL/6 mice
Experimental: Twelve female C57 BL/6 mice were used in plasma pharmacokinetic assay, randomly divided into two groups, with 6 animals in each group. Animals in the first group were administered intravenously 1 mg/kg of the test drug, and animals in the second group were administered intragastrically 5 mg/kg of the test drug. A formula comprising HPbCD and cosolvent (Solutol®) was used as formulation vehicle, and the obtained intravenous or intragastric formulations were all clear solutions. For animals in the intravenous group and the intragastric group, blood was collected from the saphenous vein at 0.0833, 0.25, 0.5, 1, 2, 4, 8, and 24 hours after administration, with 3 samples at each time point. Plasma samples collected from the intragastric administration group were frozen at −80° C. and thawed before LC-MS/MS sample analysis. The thawed plasma samples were subjected to protein precipitation by adding acetonitrile containing an internal standard in a certain ratio, and centrifuged to obtain a supernatant for LC-MS/MS injection. AP14000 or 5500 was used as the analytical instrument, ACQUITY UPLC BEH C18 (2.1×50 mm, 1.7 μm) was used as the chromatographic column, and the ionization of the test compound was performed by an ESI positive or negative ion source. There were 8 concentrations of the standard sample in each analysis batch, the ratio of the peak area of the test compound to the peak area of the internal standard (IS) was noted as Y, the concentration of the test compound in the plasma sample was noted as X, 1/x^2 was taken as the weighting coefficient to carry on the linear regression, and the regression equation of response and concentration was obtained. There were also corresponding quality control samples in each analysis batch. Phoenix 6.3 WinNonlin® was used for data processing to give corresponding PK parameters.

[3] = Solid stability test of crystal form A (crystal form); type: physicochemical
Description: (§1) Samples placed under high temperature and high humidity conditions were sealed with aluminum foil, and small holes were made in the foil to ensure that the samples can fully contact with ambient air. Samples placed under strong light conditions were sealed with screw caps.

[4] = Stability test of crystal form A (impurity content); type: physicochemical
Description: as §1

[5] = test system: mice model of chronic/acute asthma induced by ovalbumin (OVA) and aluminum hydroxide (Al(OH)3); test: Mice model of chronic/acute asthma induced by OVA and Al(OH)3; type: in vivo
CRTH2 receptor [6] = molecular target: T1, CRTH2 receptor; test: PathHunter CHO-K1 CRTH2 β-arrestin antagonist assay; type: cell-based; settings: PathHunter CHO-K1 CRTH2 β-arrestin cells, PGD2 agonist at EC80
Experimental: PathHunter® CHO-K1 CRTH2 β-arrestin cells (DiscoverX, catalogue number 93-0291C2) grew under standard conditions, and were inoculated into a white-wall 384-well microplate at a density of 5,000 cells/well. 20 μL of Cell Plating Reagent 1 was used in each well. Before the test, the cells were incubated overnight at 37° C./5% CO2. A test compound was serially diluted in DMSO with a dilution factor of 3-fold to give 8 concentrations of the test compound. Shortly before the test, the serially diluted test compound was further diluted with the test buffer to 5 times of the test concentration. 5 μL of the further diluted test compound was added to the cells, and the cells were incubated for 30 min at 37° C. The concentration of the solvent was 1%. 5 μL of 6×EC80 agonist (PGD2) buffer was added to the cells, and the cells were incubated for 90 min at 37° C. Measured signals were generated by one-time addition of 15 μL (50% v/v) of PathHunter detection mixture reagent and subsequent one-hour incubation. The microplate was read through the chemiluminescent signals of PerkinElmer Envision™ reader. Biological activity of the test compound was analyzed by CBIS data analysis suite (ChemInnovation, CA), and was denoted as IC50 value.

Which CRTH2 receptor antagonism (CRTH2 receptor [1]) does the source give for `O=C(O)CCn1c2c(c3ccccc31)C[C@H](NS(=O)(=O)c1ccc(F)cc1)CC2` [Ramatroban] here?
Its CRTH2 receptor antagonism is “weak CRTH2 receptor antagonist”.

For `Cc1c(Cc2ccc3c(c2)C(F)(F)CCS3(=O)=O)c2cc(F)ccc2n1CC(=O)O` [Crystal Form A of Compound 1], which clearance ([2]; intravenous 1 mg/kg, read-out: Clearance Rate of Intravenous Administration (Cl, mL/min/kg)) is on record?
Its clearance is 4.55 mL/min/kg.

And the half-life ([2]; po, intragastric 5 mg/kg, read-out: Half-life of Intragastric Administration (T1/2, hr) (converted))?
The half-life was 3.19 h.

And the Cmax ([2]; po, intragastric 5 mg/kg, read-out: Maximum Blood Concentration of Intragastric Administration (Cmax))?
Its Cmax is 6.77 µM.

And the AUC ([2]; po, intragastric 5 mg/kg, read-out: Plasma Exposure of Intragastric Administration (AUC, nM*hr))?
Its AUC is 26000 nM·h.

What about the “Crystal Form” value ([3]; 40° C, Reletive Humidity 75%, Exposure, day 10) of the same compound?
Its value is “Crystal Form A”.

And the “Crystal Form” value ([3]; 40° C, Reletive Humidity 75%, Exposure, day 30)?
The value was “Crystal Form A”.

What about the “Crystal Form” value ([3]; 40° C, Reletive Humidity 75%, Exposure, day 60) of the same compound?
The value was “Crystal Form A”.

And the “Crystal Form” value ([3]; 40° C, Reletive Humidity 75%, Exposure, day 90)?
Its value is “Crystal Form A”.

What about the “Crystal Form” value ([3]; 60° C, Reletive Humidity 75%, Exposure, day 10) of the same compound?
Its value is “Crystal Form A”.

And the “Crystal Form” value ([3]; 60° C, Reletive Humidity 75%, Exposure, day 30)?
Its value is “Crystal Form A”.

What about the “Crystal Form” value ([3]; 60° C, Reletive Humidity 75%, Exposure, day 60) of the same compound?
The value was “Crystal Form A”.

And the “Crystal Form” value ([3]; 60° C, Reletive Humidity 75%, Exposure, day 90)?
Its value is “Crystal Form A”.

What about the “Crystal Form” value ([3]; High Humidity (Room temperature/Reletive Humidity 92.5%, Exposure), day 5) of the same compound?
Its value is “Crystal Form A”.

What about the “Crystal Form” value ([3]; High Humidity (Room temperature/Reletive Humidity 92.5%, Exposure), day 10) of the same compound?
The value was “Crystal Form A”.

What about the “Crystal Form” value ([3]; High Temperature (60° C., Exposure), day 5) of the same compound?
The value was “Crystal Form A”.

And the “Crystal Form” value ([3]; High Temperature (60° C., Exposure), day 10)?
The value was “Crystal Form A”.

What about the “Crystal Form” value ([3]; Strong Light (5000 lx, Sealed), day 5) of the same compound?
Its value is “Crystal Form A”.

And the “Crystal Form” value ([3]; Strong Light (5000 lx, Sealed), day 10)?
The value was “Crystal Form A”.

What about the “Crystal Form” value ([3]; day 0) of the same compound?
The value was “Crystal Form A”.

What about the “Impurity Content” value ([4]; 0 Day (Table 5)) of the same compound?
The value was 0.07%.

What about the “Impurity Content” value ([4]; 25° C/60% RH, 3 months) of the same compound?
Its value is 0.09%.

What about the “Impurity Content” value ([4]; 25° C/60% RH, 6 months) of the same compound?
The value was 0.13%.

And the “Impurity Content” value ([4]; 30° C/65% RH, 3 months)?
The value was 0.09%.

What about the “Impurity Content” value ([4]; 30° C/65% RH, 6 months) of the same compound?
Its value is 0.15%.

What about the “Impurity Content” value ([4]; 40° C/75% RH, 0 Day (Table 6)) of the same compound?
Its value is 0.07%.

What about the “Impurity Content” value ([4]; 40° C/75% RH, 1 month) of the same compound?
Its value is 0.17%.

What about the “Impurity Content” value ([4]; 40° C/75% RH, 2 months) of the same compound?
Its value is 0.13%.

And the number of eosinophils [5]?
The number of eosinophils was “significantly reduce the number of eosinophils”.

With `Cc1c(Cc2ccc3c(c2)C(F)(F)CCS3(=O)=O)c2cc(F)ccc2n1CC(=O)O` [Compound 1] as the compound, how does the pIC50 (CRTH2 receptor [6]) read?
Its pIC50 is greater than 7.00.
